Results reported in paper PMC8154566, “Scaffold-Hopping Strategy on a Series of Proteasome Inhibitors Led to a Preclinical Candidate for the Treatment of Visceral Leishmaniasis” (Journal of Medicinal Chemistry, 2021).
≈ marks a conversion by molar mass, not a printed value. Read-outs that look alike come from different tables or passages of the source. Marks after values point to notes of the source that are not given here.

Columns and labels:
[1] = Kinetic aqueous solubility by CLND; type: physicochemical; conditions: CLND
How it was run: (§1)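 Intramacrophage L. donovani amastigotes in differentiated THP-1 cells, run per an earlier protocol but with 96 h compound exposure instead of 72 h. Aqueous solubility also follows a previously described method.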

[2] = test system: infected mouse model of VL; test: Infected mouse model of VL; type: in vivo; conditions: 50 mg/kg ip, b.i.d for 5 days
Experimental: In vivo Mouse Efficacy Studies. In vivo studies were carried out as previously described, with minor modifications.7 Briefly: Control drug used was Miltefosine (30 mg/kg orally, twice daily for 5 days), vehicle used was 10% (v/v) dimethyl sulfoxide (DMSO), 40% polyethylene glycol 400, and 50% deionized water (10 Ml/kg orally, twice daily for 5 days) and mice were treated with test compound intraperitoneally (50 mg/kg twice daily for 5 days).

[3] = in vivo; type: in vivo; conditions: mouse
Experimental: Intramacrophage L. donovani Assay. This assay was conducted as previously described, except for compound exposure time, which was 96 h instead of 72 h.4 […]
All regulated procedures on living animals were carried out under the authority of a project license issued by the Home Office under the Animals (Scientific Procedures) Act 1986, as amended in 2012 (and in compliance with EU Directive EU/2010/63). Infected animals had access to food and water ad libitum and were housed under a 12 hour light/dark photoperiod. Animals used in these experiments were female NMRI and Balb/c mice (Harlan, UK).
Test compound DDD01008714 was dosed orally (P.O.) at 10 mg free base/kg (dose volume 10 mL/kg; dose vehicle: 10% (vol/vol) dimethyl sulfoxide (DMSO), 40% polyethylene glycol 400 (PEG400) and 50% deionized water) to female NMRI mice (n = 3) or intravenously (I.V.) at 3 mg free base/kg (dose volume 5 mL/kg; dose vehicle: 10% (vol/vol) dimethyl sulfoxide (DMSO) and 90% Saline) to female Balb/c mice (n = 3). Blood samples (10 μL) where taken from the tail vein of […]
samples for I.V. leg only) and mixed with two volumes of deionized water (20 μL). After suitable sample preparation, the concentration of test compound in the whole blood from treated mice was determined by UPLC-MS/MS using a Quattro Premier XE (Waters, USA). Pharmacokinetic parameters were derived from the mean blood concentration time curve using PK solutions software v 2.0 (Summit Research Services, USA). […]
of concentration vs. Time for 4, dosed at 10 mg/kg. Extrapolated to 50 mg/kg assuming a linear dose increase, showing potential coverage above EC90 for approximately 6 hours […]
(1 picture or pasted object on this page, not shown here)

[4] = parameters: method as in PMID 30962368; conditions: after 3 h; cited from earlier work
[5] = parameters: method as in PMID 30962368; conditions: after 3 h; cited from earlier work; remark: listed apart in the source
[6] = test system: L. donovani amastigotes; test: INMAC assay: intramacrophage L. donovani in differentiated THP-1 cells; type: cell-based, Leishmania donovani; conditions: Leishmania donovani, THP-1, INMAC
How it was run: as §1

[7] = cited from earlier work
[8] = test system: L. donovani amastigotes; conditions: cited from earlier work; for LdInMac pIC50: supplementary csv, flagged as reported previously in the main tables
[9] = parameters: method as in PMID 30962368; conditions: cited from earlier work
[10] = test system: THP-1 cells; conditions: cited from earlier work; for THP1 pIC50: supplementary csv, flagged as reported previously in the main tables
[11] = supplementary csv; flagged as reported previously in Table 5; cited from earlier work
[12] = female, Balb/c, in vivo, iv PK 3 mg/kg
[13] = female, NMRI, in vivo, po PK 10 mg/kg

Compound: O=C(Nc1ccc(F)c(-c2cn3cc(N4CCOCC4)cnc3n2)c1)N1CCCC1 [Compound 4]
- solubility ([1]; Table 1, kinetic solubility, read-out: aqueous solubility): 150 µM (≈ 61.6 µg/mL)
- solubility ([1]; Table 2, kinetic, read-out: Aq. solubility): 150 µM (≈ 61.6 µg/mL)
- % reduction in parasitemia [2]: 98%
- AUC at 24 h [3, 12]: 2250 ng·h/mL
- half-life at 24 h [3, 12]: 30 min
- bioavailability at 24 h ([3]; female, NMRI, in vivo, po PK 10 mg/kg vs iv 3 mg/kg): 57%
- AUC at 24 h [3, 13]: 4300 ng·h/mL
- Cmax at 24 h [3, 13]: 1300 ng/mL
- Tmax at 24 h [3, 13]: 30 min
- Clb ([3]; iv PK 3 mg/kg): 22 mL/min/kg
- Vdss ([3]; listed under po PK (10 mg/kg)): 0.8 L/kg
- time with blood levels above EC90 ([3]; oral dose of 10 mg/kg): around 2 h
- human plasma stability, compound remaining [4]: 100%
- mouse plasma stability, compound remaining [5]: 100%
- EC90 ([6]; pEC90 5.7 expressed as concentration, read-out: EC90): 0.78 µg/mL
- EC90 ([6]; read-out: pEC90 (converted)): 2 µM
- CLi ([7]; Table 1, mouse liver microsomes): <0.5 mL/min/g
- Mouse CLi ([7]; Table 2, mouse liver microsomes): <0.5^e mL/min/g
- Cli (mouse, ml/min/g) ([7]; supplementary csv, mouse, flagged as reported previously in the main tables): <0.5 mL/min/g
- INMAC pEC50 ([8]; Table 1, five independent replicates, SD ≤0.2): 6.2
- INMAC pEC50 ([8]; Table 2): 6.2^e
- LdInMac pIC50 [8]: 6.2
- Ames assay result [9]: positive
- THP-1 cells pEC50 ([10]; Table 1): <4.3
- THP1 pIC50 [10]: <4.3

Compound: O=C(Nc1ccc(F)c(-c2nc3cc(N4CCOCC4)cnn3n2)c1)N1CCCC1 [Compound 24, N-(4-Fluoro-3-(7-morpholino-[1,2,4]triazolo[1,5-b]pyridazin-2-yl)phenyl)pyrrolidine-1-carboxamide]
- Aqueous Solubility [11]: 420 µM
- INMAC pEC50 ([8]; Table 5): 6.1
- LdInMac pIC50 [8]: 6.1
- THP-1 pEC50 ([10]; Table 5): <4.3
- THP1 pIC50 [10]: <4.3
